Source: ChEMBL document CHEMBL4840335, “Rational Design and Development of Novel CDK9 Inhibitors for the Treatment of Acute Myeloid Leukemia” (J Med Chem, 2021)
Each block holds one compound with its values, some of them ahead of it. Calls of active or inactive are those of the source. No cut-off for these calls is given here.

Tests used:
CDK9/cyclin T1 = CDK9/cyclin T1 (Homo sapiens, UniProt P50750); assay: Inhibition of CDK9/cyclin T1 (unknown origin) incubated for 2 hrs in presence of ATP by FRET based LANCE assay; format: protein-complex assay
[1] = biological target: Cyclin-dependent kinase 7 (Homo sapiens, UniProt P50613); assay: Inhibition of CDK7 (unknown origin)
[2] = biological target: Cyclin-dependent kinase 6 (Homo sapiens, UniProt Q00534); assay: Inhibition of CDK6 (unknown origin)
[3] = biological target: Cyclin-dependent kinase 4 (Homo sapiens, UniProt P11802); assay: Inhibition of CDK4 (unknown origin)
[4] = biological target: Cyclin-dependent kinase 2 (Homo sapiens, UniProt P24941); assay: Inhibition of CDK2 (unknown origin)
[5] = biological target: CDK9/cyclin T1 (Homo sapiens) (UniProt O60563+P50750); assay: Inhibition of CDK9/cyclin T1 (unknown origin) at 10 uM incubated for 2 hrs in presence of ATP by FRET based LANCE assay relative to control; format: protein-complex assay
MV4-11 [6] = assay: Induction of apoptosis in human MV4-11 cells assessed as early apoptotic cells at 50 nM measured after 24 hrs by annexinV-FITC/propidium iodide staining based flow cytometry (reference value: 0.79 %); format: functional
JeKo-1 = assay: Antiproliferative activity against human JeKo-1 cells assessed as reduction in cell proliferation measured after 3 to 7 days by MTS assay; format: functional, cell-based
MV4-11 [7] = assay: Induction of apoptosis in human MV4-11 cells assessed as live cells at 10 nM measured after 24 hrs by annexinV-FITC/propidium iodide staining based flow cytometry (reference value: 95.14 %); format: functional
CCRF-CEM = assay: Antiproliferative activity against human CCRF-CEM cells assessed as reduction in cell proliferation measured after 3 to 7 days by MTS assay; format: functional, cell-based
OCI-Ly10 = assay: Antiproliferative activity against human OCILY10 cells assessed as reduction in cell proliferation measured after 3 to 7 days by MTS assay; format: functional, cell-based
MV4-11 [8] = assay: Induction of apoptosis in human MV4-11 cells assessed as activation of cleaved PARP at 5 to 50 nM measured after 24 hrs by Western blot analysis; format: functional, cell-based; conditions: dose 5-50 nM
MM1.S = assay: Antiproliferative activity against human MM1.S cells assessed as reduction in cell proliferation measured after 3 to 7 days by MTS assay; format: functional, cell-based
TMD8 = assay: Antiproliferative activity against human TMD8 cells assessed as reduction in cell proliferation measured after 3 to 7 days by MTS assay; format: functional, cell-based
Z-138 = assay: Antiproliferative activity against human Z138 cells assessed as reduction in cell proliferation measured after 3 to 7 days by MTS assay; format: functional, cell-based
[9] = Antiproliferative activity against human MINO cells assessed as reduction in cell proliferation measured after 3 to 7 days by MTS assay; format: functional, cell-based
RPMI-8226 = assay: Antiproliferative activity against human RPMI-8226 cells assessed as reduction in cell proliferation measured after 3 to 7 days by MTS assay; format: functional, cell-based
MV4-11 [10] = assay: Induction of apoptosis in human MV4-11 cells assessed as late apoptotic cells at 50 nM measured after 24 hrs by annexinV-FITC/propidium iodide staining based flow cytometry (reference value: 3.04 %); format: functional
MV4-11 [11] = assay: Antiproliferative activity against human MV4-11 cells assessed as reduction in cell proliferation measured after 3 to 7 days by MTS assay; format: functional, cell-based
MV4-11 [12] = assay: Induction of apoptosis in human MV4-11 cells assessed as necrotic cells at 10 nM measured after 24 hrs by annexinV-FITC/propidium iodide staining based flow cytometry (reference value: 1.03 %); format: functional
HL-60 = assay: Antiproliferative activity against human HL-60 cells assessed as reduction in cell proliferation measured after 3 to 7 days by MTS assay; format: functional, cell-based
MV4-11 [13] = assay: Induction of apoptosis in human MV4-11 cells assessed as activation of caspase-3 at 5 to 50 nM measured after 24 hrs by Western blot analysis; format: functional, cell-based; conditions: dose 5-50 nM
MV4-11 [14] = assay: Induction of apoptosis in human MV4-11 cells assessed as late apoptotic cells at 10 nM measured after 24 hrs by annexinV-FITC/propidium iodide staining based flow cytometry (reference value: 3.04 %); format: functional
MV4-11 [15] = assay: Induction of apoptosis in human MV4-11 cells assessed as live cells at 50 nM measured after 24 hrs by annexinV-FITC/propidium iodide staining based flow cytometry (reference value: 95.14 %); format: functional
Kasumi 1 = assay: Antiproliferative activity against human Kasumi 1 cells assessed as reduction in cell proliferation measured after 3 to 7 days by MTS assay; format: functional, cell-based
Raji = assay: Antiproliferative activity against human Raji cells assessed as reduction in cell proliferation measured after 3 to 7 days by MTS assay; format: functional, cell-based
MV4-11 [16] = assay: Induction of apoptosis in human MV4-11 cells assessed as necrotic cells at 50 nM measured after 24 hrs by annexinV-FITC/propidium iodide staining based flow cytometry (reference value: 1.03 %); format: functional
MV4-11 [17] = assay: Induction of apoptosis in human MV4-11 cells assessed as early apoptotic cells at 10 nM measured after 24 hrs by annexinV-FITC/propidium iodide staining based flow cytometry (reference value: 0.79 %); format: functional

Sequence of Cyclin-dependent kinase 7 (P50613 whole entry): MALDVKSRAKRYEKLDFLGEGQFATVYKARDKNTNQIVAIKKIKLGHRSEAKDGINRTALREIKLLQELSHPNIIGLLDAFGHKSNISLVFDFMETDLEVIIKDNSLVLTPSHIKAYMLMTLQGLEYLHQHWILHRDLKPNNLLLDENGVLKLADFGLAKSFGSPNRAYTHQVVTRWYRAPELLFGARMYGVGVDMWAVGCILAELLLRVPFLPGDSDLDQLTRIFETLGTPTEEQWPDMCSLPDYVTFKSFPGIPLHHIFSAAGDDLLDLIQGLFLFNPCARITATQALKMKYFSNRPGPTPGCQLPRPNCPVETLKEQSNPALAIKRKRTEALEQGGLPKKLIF
Sequence of Cyclin-dependent kinase 4 (P11802 whole entry): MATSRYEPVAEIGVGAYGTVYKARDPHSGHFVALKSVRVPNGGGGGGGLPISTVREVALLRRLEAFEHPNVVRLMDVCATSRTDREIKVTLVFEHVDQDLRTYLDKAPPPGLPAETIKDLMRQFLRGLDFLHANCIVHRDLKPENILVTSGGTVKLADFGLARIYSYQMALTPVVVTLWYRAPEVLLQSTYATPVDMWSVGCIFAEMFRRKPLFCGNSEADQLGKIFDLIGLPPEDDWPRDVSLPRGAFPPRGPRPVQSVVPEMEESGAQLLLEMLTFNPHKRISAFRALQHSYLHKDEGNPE
Sequence of CDK9/cyclin T1 (O60563 whole entry): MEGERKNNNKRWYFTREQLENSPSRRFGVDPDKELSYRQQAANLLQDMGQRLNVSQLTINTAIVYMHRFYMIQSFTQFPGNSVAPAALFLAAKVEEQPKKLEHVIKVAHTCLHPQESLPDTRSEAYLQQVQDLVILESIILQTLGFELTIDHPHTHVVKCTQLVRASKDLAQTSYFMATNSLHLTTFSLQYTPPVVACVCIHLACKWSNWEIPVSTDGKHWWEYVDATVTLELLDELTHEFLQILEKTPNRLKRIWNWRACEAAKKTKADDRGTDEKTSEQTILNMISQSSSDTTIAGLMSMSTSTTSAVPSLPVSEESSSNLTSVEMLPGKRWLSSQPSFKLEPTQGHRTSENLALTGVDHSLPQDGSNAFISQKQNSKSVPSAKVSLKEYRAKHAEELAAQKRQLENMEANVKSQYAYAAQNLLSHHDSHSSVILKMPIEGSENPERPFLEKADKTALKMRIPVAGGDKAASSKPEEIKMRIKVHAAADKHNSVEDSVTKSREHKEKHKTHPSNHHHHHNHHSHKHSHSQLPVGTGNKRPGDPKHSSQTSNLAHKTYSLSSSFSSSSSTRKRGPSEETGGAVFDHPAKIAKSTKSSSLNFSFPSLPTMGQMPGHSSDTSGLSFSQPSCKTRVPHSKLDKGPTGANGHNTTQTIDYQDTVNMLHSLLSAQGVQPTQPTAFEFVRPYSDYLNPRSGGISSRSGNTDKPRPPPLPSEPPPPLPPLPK
Sequence of CDK9/cyclin T1 (P50750 whole entry): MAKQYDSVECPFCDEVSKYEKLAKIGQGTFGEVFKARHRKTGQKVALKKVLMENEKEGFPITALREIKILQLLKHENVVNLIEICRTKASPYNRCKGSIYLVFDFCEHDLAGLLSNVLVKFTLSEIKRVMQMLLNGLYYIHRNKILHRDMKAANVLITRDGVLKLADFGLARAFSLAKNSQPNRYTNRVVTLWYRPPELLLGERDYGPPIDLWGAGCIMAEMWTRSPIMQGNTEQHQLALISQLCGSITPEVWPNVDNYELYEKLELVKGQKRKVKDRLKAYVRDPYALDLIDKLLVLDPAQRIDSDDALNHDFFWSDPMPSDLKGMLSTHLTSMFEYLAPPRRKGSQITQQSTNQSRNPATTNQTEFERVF
Sequence of Cyclin-dependent kinase 6 (Q00534 whole entry): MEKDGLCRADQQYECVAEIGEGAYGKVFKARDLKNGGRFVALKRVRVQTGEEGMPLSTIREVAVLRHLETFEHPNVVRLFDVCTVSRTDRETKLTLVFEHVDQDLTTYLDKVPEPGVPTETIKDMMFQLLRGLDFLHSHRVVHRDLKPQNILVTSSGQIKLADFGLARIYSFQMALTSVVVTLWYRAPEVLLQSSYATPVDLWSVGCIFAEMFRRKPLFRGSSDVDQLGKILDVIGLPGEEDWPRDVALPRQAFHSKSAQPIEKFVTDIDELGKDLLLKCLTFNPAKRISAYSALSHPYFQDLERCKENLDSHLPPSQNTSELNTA

IC50 (CDK9/cyclin T1): 0.0247 µM
Structure (SMILES): Cc1n[nH]c2ccc(-c3cncc(N[C@@H](CO)c4ccc(F)c(F)c4)n3)cc12

IC50 (CDK9/cyclin T1): 8.77 µM
Structure (SMILES): Cc1n[nH]c2ccc(-c3cncc(N[C@H](CO)c4ccccc4)n3)cc12

IC50 (CDK9/cyclin T1): 0.00657 µM
Structure (SMILES): Cc1n[nH]c2ncc(-c3cncc(N[C@@H](CO)c4ccccc4)n3)cc12

IC50 (CDK9/cyclin T1): 0.0756 µM
Structure (SMILES): Cc1n[nH]c2ccc(-c3cncc(N[C@@H](CO)c4ccc(Cl)cc4)n3)cc12

IC50 [1]: > 1 µM
IC50 [2]: > 1 µM
IC50 [3]: > 1 µM
IC50 [4]: 0.0561 µM
IC50 (CDK9/cyclin T1): 0.0204 µM
Structure (SMILES): Cc1n[nH]c2ccc(-c3cncc(N[C@@H](CO)c4ccc(F)cc4)n3)cc12

IC50 [1]: > 1 µM
IC50 [2]: > 1 µM
IC50 [3]: > 1 µM
IC50 [4]: 0.0674 µM
IC50 (CDK9/cyclin T1): 0.00604 µM
Structure (SMILES): Cc1n[nH]c2ccc(-c3cncc(N[C@@H](CO)c4ccccc4)n3)cc12

IC50 [1]: 0.322 µM
IC50 [2]: > 1 µM
IC50 [3]: > 1 µM
IC50 [4]: 0.0529 µM
IC50 (CDK9/cyclin T1): 0.643 µM
Structure (SMILES): Cc1n[nH]c2ccc(-c3cncc(NC4CCCC(O)C4)n3)cc12 (centres undefined)

inhibition [5]: 0.61%
Structure (SMILES): O=c1[nH]c2ccc(-c3cncc(NC(CO)c4ccccc4)n3)cc2[nH]1 (centres undefined)

IC50 (CDK9/cyclin T1): 0.995 µM
Structure (SMILES): Cc1n[nH]c2ccc(-c3cncc(NC(C)CO)n3)cc12 (centres undefined)

IC50 (CDK9/cyclin T1): 0.0243 µM
Structure (SMILES): Cc1n[nH]c2ccc(-c3cncc(NC(CO)c4ccccc4F)n3)cc12 (racemic)

IC50 (CDK9/cyclin T1): 8.92 µM
Structure (SMILES): OCC(Nc1cncc(-c2ccc3occc3c2)n1)c1ccccc1 (centres undefined)

IC50 (CDK9/cyclin T1): 0.0503 µM
Structure (SMILES): Cc1n[nH]c2ccc(-c3cncc(NC(CO)c4ccc(F)cc4)n3)cc12 (racemic)

IC50 (CDK9/cyclin T1): 6.8 µM
Structure (SMILES): Cc1n[nH]c2ccc(-c3cncc(N[C@H](C)c4ccc(F)cc4)n3)cc12

IC50 (CDK9/cyclin T1): 0.341 µM
Structure (SMILES): Cc1n[nH]c2ccc(-c3cncc(NC(CO)c4cccc(C(F)(F)F)c4)n3)cc12 (racemic)

IC50 (CDK9/cyclin T1): 0.633 µM
Structure (SMILES): Cc1n[nH]c2ccc(-c3cncc(NC(CO)c4cccc(OC(F)(F)F)c4)n3)cc12 (racemic)

IC50 (CDK9/cyclin T1): 0.0273 µM
Structure (SMILES): Cc1n[nH]c2ccc(-c3cncc(NC(CO)c4ccc(F)c(F)c4)n3)cc12 (racemic)

IC50 (CCRF-CEM): 0.0033 µM
IC50 (OCI-Ly10): 0.0021 µM
IC50 (MM1.S): 0.0063 µM
IC50 [1]: > 1 µM
IC50 [2]: > 1 µM
IC50 (RPMI-8226): 0.014 µM
IC50 (MV4-11 [11]): 0.0054 µM
IC50 (HL-60): 0.0057 µM
IC50 (Raji): 0.011 µM
IC50 [3]: > 1 µM
IC50 [4]: > 1 µM
IC50 (CDK9/cyclin T1): 0.00496 µM
Structure (SMILES): COC[C@H](C)N[C@H]1CC[C@H](Nc2cc(-c3cccc(NCC4(C#N)CCOCC4)n3)c(Cl)cn2)CC1
Activity (MV4-11 [6]): 1.8%
IC50 (JeKo-1): 0.01 µM
Activity (MV4-11 [7]): 77.97%
Activity (MV4-11 [8]): Active
IC50 (TMD8): 0.015 µM
IC50 (Z-138): 0.0037 µM
IC50 [9]: 0.0052 µM
Activity (MV4-11 [10]): 77.18%
Activity (MV4-11 [12]): 3.23%
Activity (MV4-11 [13]): Active
Activity (MV4-11 [14]): 15.48%
Activity (MV4-11 [15]): 4.36%
IC50 (Kasumi 1): 0.0068 µM
Activity (MV4-11 [16]): 16.67%
Activity (MV4-11 [17]): 3.33%

inhibition [5]: 31.4%
Structure (SMILES): O=C1Cc2cc(-c3cncc(NC(CO)c4ccccc4)n3)ccc2N1 (centres undefined)

IC50 (CDK9/cyclin T1): 0.0265 µM
Structure (SMILES): Cc1n[nH]c2ccc(-c3cc(N[C@@H](CO)c4ccc(F)cc4)cnc3Cl)cc12

IC50 [1]: > 1 µM
IC50 [2]: > 1 µM
IC50 [3]: > 1 µM
IC50 [4]: 0.147 µM
IC50 (CDK9/cyclin T1): 0.0142 µM
Structure (SMILES): Cc1n[nH]c2ccc(-c3cncc(NC(CO)c4ccccc4)n3)cc12 (racemic)

IC50 (CDK9/cyclin T1): 0.0423 µM
Structure (SMILES): OC[C@H](Nc1cncc(-c2ccc3[nH]ncc3c2)n1)c1ccccc1

inhibition [5]: 2.63%
Structure (SMILES): OCC(Nc1cncc(-c2ccc3nccnc3c2)n1)c1ccccc1 (centres undefined)

inhibition [5]: 12.4%
Structure (SMILES): COc1cc(F)ccc1-c1cncc(NC(CO)c2ccccc2)n1 (centres undefined)

IC50 (CDK9/cyclin T1): 0.153 µM
Structure (SMILES): Cc1cccc(C(CO)Nc2cncc(-c3ccc4[nH]nc(C)c4c3)n2)c1 (racemic)

IC50 [1]: > 1 µM
IC50 [2]: > 1 µM
IC50 [3]: > 1 µM
IC50 [4]: > 1 µM
IC50 (CDK9/cyclin T1): 0.0207 µM
Structure (SMILES): Cc1n[nH]c2ncc(-c3cc(N[C@@H](CO)c4ccccc4)cnc3Cl)cc12

IC50 [1]: 0.496 µM
IC50 [2]: > 1 µM
IC50 [3]: > 1 µM
IC50 [4]: 0.0345 µM
IC50 (CDK9/cyclin T1): 0.00915 µM
Structure (SMILES): Cc1n[nH]c2ccc(-c3cncc(N[C@@H](CO)c4cccc(F)c4)n3)cc12

IC50 (CDK9/cyclin T1): 0.774 µM
Structure (SMILES): COc1ccc([C@H](CO)Nc2cncc(-c3ccc4[nH]nc(C)c4c3)n2)cc1

IC50 (CDK9/cyclin T1): 0.883 µM
Structure (SMILES): Cc1n[nH]c2ccc(-c3cncc(N[C@H](C)c4ccccc4)n3)cc12

inhibition [5]: 13.8%
Structure (SMILES): Cc1nc2c(F)cc(-c3cncc(NC(CO)c4ccccc4)n3)cc2n1C(C)C (centres undefined)
